Measurements from ChEMBL document CHEMBL3045162, “Inhibition of HIV-1 replication by a tricyclic coumarin GUT-70 in acutely and chronically infected cells” (Bioorg Med Chem Lett, 2013).
pEC50, pIC50: −log10 of the molar value. Activity calls are given as the source filed them. The rule behind the calls is not given here.

What was measured:
[1] = target: Transcription factor p65 (Homo sapiens) (UniProt Q04206); assay: Binding affinity to NF-kappa B p65 in Homo sapiens (human) U1 nuclear extract after 0.5 to 4 hr by competitive EMSA
MOLT-4 [2] = assay: Cytotoxicity against Homo sapiens (human) MOLT4 cells by MTT assay; assay type: cell-based
MOLT-4 [3] = assay: Inhibition of NF-kappaB-mediated viral replication in Homo sapiens (human) Molt-4 cells infected with X4 tropic HIV1 NL4-3 at 10 uM after 24 hr by RT-PCR analysis; assay type: cell-based
U1 [4] = assay: Inhibition of NF-kappaB-mediated viral replication in Homo sapiens (human) U1 cells […] at 10 uM after 24 hr by RT-PCR analysis in presence of TNF-alpha; assay type: cell-based
[5] = Selectivity index, ratio of IC50 for human MOLT4 cells to EC50 for X4 tropic HIV1 NL4-3 infected in human Molt4 cells; assay type: toxicity, cell-based, MOLT-4; settings: read-out: Ratio IC50/EC50
[6] = system: Human immunodeficiency virus 1; assay: Antiviral activity against X4 tropic Human immunodeficiency virus 1 NL4-3 infected human Molt4 cells assessed as intracellular p24 expression after 4 to 7 days by flow cytometry; assay type: functional, organism-based; settings: Human immunodeficiency virus 1, NL4-3, MOLT-4
TZM-bl = assay: Inhibition of NF-kappaB-mediated viral replication in Homo sapiens (human) TZM-bl cells infected with X4 tropic HIV1 NL4-3 compound pre-treated for 2hr before infection measured after 24 hr by luciferase assay; assay type: cell-based
[7] = system: Human immunodeficiency virus 1; assay: Antiviral activity against Human immunodeficiency virus 1 infected U1 cells assessed as intracellular p24 expression after 24 hr by flow cytometry in presence of TNF-alpha; assay type: functional, organism-based
U1 [8] = assay: Cytotoxicity against Homo sapiens (human) U1 cells by MTT assay in presence of PMA; assay type: cell-based
[9] = target: Transcription factor p65 (Homo sapiens) (UniProt Q04206); assay: Inhibition of NF-kappa B p65 nuclear translocation in TNFalpha-treated Homo sapiens (human) U1 cells after 0.5 to 6 hr by Western blot analysis; assay type: cell-based
[10] = Selectivity index, ratio of IC50 for TNF-alpha-stimulated human U1 cells to EC50 for X4 tropic HIV1 NL4-3 infected in TNF-alpha-stimulated human U1 cells; assay type: toxicity, cell-based; settings: with X4 tropic HIV1 NL4-3, read-out: Ratio IC50/EC50
[11] = system: Human immunodeficiency virus 1; assay: Antiviral activity against Human immunodeficiency virus 1 infected U1 cells assessed as intracellular p24 expression after 24 hr by flow cytometry in presence of PMA; assay type: functional, organism-based
[12] = target: Transcription factor p65 (Homo sapiens) (UniProt Q04206); assay: Reduction in NF-kappa B p65 cytosolic level in TNFalpha-treated Homo sapiens (human) U1 cells after 0.5 to 6 hr by Western blot analysis; assay type: cell-based
[13] = target: Transcription factor p65 (Homo sapiens) (UniProt Q04206); assay: Inhibition of NF-kappa B p65 activity in TNFalpha-treated Homo sapiens (human) U1 cells at 10 uM after 2 to 4 hr by luciferase assay; assay type: cell-based
[14] = system: Human immunodeficiency virus 1; assay: Antiviral activity against X4 tropic Human immunodeficiency virus 1 NL4-3 infected human Molt4 cells assessed as intracellular p24 expression at 10 uM after 4 days by flow cytometry; assay type: functional, organism-based; settings: MOLT-4
[15] = Selectivity index, ratio of IC50 for PMA-stimulated human U1 cells to EC50 for X4 tropic HIV1 NL4-3 infected in PMA-stimulated human U1 cells; assay type: toxicity, cell-based; settings: with X4 tropic HIV1 NL4-3, read-out: Ratio IC50/EC50
[16] = system: Human immunodeficiency virus 1; assay: Antiviral activity against X4 tropic Human immunodeficiency virus 1 NL4-3 infected human Molt4 cells assessed as intracellular p24 expression at 10 uM after 7 days by flow cytometry; assay type: functional, organism-based; settings: MOLT-4
U1 [17] = assay: Cytotoxicity against Homo sapiens (human) U1 cells by MTT assay in presence of TNF-alpha; assay type: cell-based
[18] = Cytotoxicity against Homo sapiens (human) TZM-bl cells by MTT assay; assay type: cell-based
[19] = Human immunodeficiency virus 1, U1, 24 h

Transcription factor p65 (Homo sapiens), sequence (Q04206 whole entry): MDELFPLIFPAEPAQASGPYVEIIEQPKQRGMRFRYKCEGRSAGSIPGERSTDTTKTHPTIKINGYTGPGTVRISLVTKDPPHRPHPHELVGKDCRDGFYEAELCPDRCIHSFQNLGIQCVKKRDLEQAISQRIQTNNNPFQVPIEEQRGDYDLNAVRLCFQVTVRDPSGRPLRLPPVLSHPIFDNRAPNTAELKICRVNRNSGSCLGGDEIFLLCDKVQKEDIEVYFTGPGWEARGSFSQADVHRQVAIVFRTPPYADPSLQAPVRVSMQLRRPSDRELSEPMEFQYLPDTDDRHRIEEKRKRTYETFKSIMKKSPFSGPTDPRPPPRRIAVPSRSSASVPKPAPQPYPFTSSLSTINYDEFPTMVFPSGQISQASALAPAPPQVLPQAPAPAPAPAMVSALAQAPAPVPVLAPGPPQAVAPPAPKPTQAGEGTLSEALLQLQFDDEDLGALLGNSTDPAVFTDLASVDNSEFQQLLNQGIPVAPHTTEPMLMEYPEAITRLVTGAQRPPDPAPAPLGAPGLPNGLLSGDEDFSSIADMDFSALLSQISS

Question: With `C/C=C(\C)C(=O)c1c(OC)c2c(c3c(CCC)cc(=O)oc13)OC(C)(C)C=C2` as the compound, how does the Activity [1] read?
Answer: The Activity was “Active”.

Question: And the pIC50 (MOLT-4 [2])?
Answer: Its pIC50 is less than 5.00.

Question: What about the inhibition (MOLT-4 [3]) of the same compound?
Answer: Its inhibition is “Active”.

Question: What about the inhibition (U1 [4]) of the same compound?
Answer: The inhibition was “Active”.

Question: What about the selectivity ratio [5] of the same compound?
Answer: Its selectivity ratio is greater than 2.93.

Question: And the pEC50 [6]?
Answer: Its pEC50 is 5.47.

Question: What about the inhibition (TZM-bl) of the same compound?
Answer: The inhibition was “Active”.

Question: And the Activity [7]?
Answer: The Activity was “Dose-dependent effect”.

Question: What about the pEC50 [7, 19] of the same compound?
Answer: The pEC50 was 5.36.

Question: What about the pIC50 (U1 [8]) of the same compound?
Answer: Its pIC50 is 5.07.

Question: And the inhibition [9]?
Answer: The inhibition was “Active”.

Question: And the selectivity ratio [10]?
Answer: The selectivity ratio was 1.95.

Question: And the Activity [11]?
Answer: The Activity was “Dose-dependent effect”.

Question: And the pEC50 [11, 19]?
Answer: Its pEC50 is 5.46.

Question: And the Activity [12]?
Answer: The Activity was “inactive”.

Question: What about the inhibition [13] of the same compound?
Answer: Its inhibition is “Active”.

Question: What about the Activity [14] of the same compound?
Answer: Its Activity is “Active”.

Question: And the selectivity ratio [15]?
Answer: Its selectivity ratio is 2.43.

Question: And the Activity [16]?
Answer: The Activity was “Active”.

Question: And the pIC50 (U1 [17])?
Answer: Its pIC50 is 5.07.

Question: And the pIC50 [18]?
Answer: Its pIC50 is less than 5.00.

Question: Which inhibition (U1 [4]) does the source give for `CC(C)C[C@H](NC(=O)[C@H](Cc1ccccc1)NC(=O)c1cnccn1)B(O)O` here?
Answer: The inhibition was “Active”.

Question: With `CC(C)(C)c1ccc(S(=O)(=O)/C=C/C#N)cc1` as the compound, how does the inhibition (U1 [4]) read?
Answer: Its inhibition is “Active”.
